Reference: US20250268948A1, “COMPOSITIONS AND METHODS FOR TREATING POST ACUTE SEQUELAE OF SARS-COV-2 INFECTION (LONG COVID)” (priority 2022, published 2025)

System: CAFs, primary fibroblasts and MSCs
Assay: Cell-based proliferation assay (Presto Blue)
Set-up: species or system human
Settings: 5 day exposure; FIG. 8
Experimental: The effects of fibroblast growth factor 2 (FGF-2), lithium, and VPA on stem cell proliferation were then investigated, using an assay based on Presto Blue, a fluorescent marker of cellular reduction. FIG. 8 is a line graph representation illustrating proliferation of different cell lines induced by increasing concentrations of FGF-b (FGF-2) after a 5 day exposure. Relative fluorescent units were measured using a FITC filter on a Modulus Microplate Reader and plotted as a function of FGF-2. The data were modeled by sigmoidal curve fitting to calculate EC50 values. […] Proliferation of these mesenchymal cells was stimulated by recombinant human FGF-2 with EC50 values in the range of 3 ng/mL to 6 ng/mL with maximal proliferative responses at about 10 ng/mL.

FGF-2: recombinant human fibroblast growth factor 2
concentration of maximal proliferative responses: about 10 ng/mL
